Data published in PMC10042774, “Theoretical and molecular mechanistic investigations of novel (3-(furan-2-yl)pyrazol-4-yl) chalcones against lung carcinoma cell line (A549)” (Naunyn-Schmiedeberg's Archives of Pharmacology, 2022).
In brackets after ≈: the same amount, converted by molar mass. Several values for one entry are separate records, joined by “and”; a condition that tells them apart may be missing. Identical values can stand only once.

Assays:
CDK4 = assay: Real-time PCR of CDK4 expression in A549 cells; format: cell-based, human; settings: IC50 conc., 48 h, qPCR, untreated control = 1
Description: (§1) Total RNAfrom the compound 7b-, compound 7c-treated A549 cells, and untreated cells were extracted using the Qiagen RNAextraction Kit, Catalog # (74,104). 1 µg of RNAwas reverse transcribed into complementary DNA(cDNA) using High-Capacity cDNA Reverse Transcription Kit (Thermo Fisher scientific, ON, Canada). qPCR was performed using Bio RadSYBR Green qPCR master mix (Bio Rad, California, USA) in a Step One Plus Real-Time PCRSystem (Bio Rad, California, USA). The total reaction volume was 25 µL, 12.5 µL of SYBRgreen master mix, 1 µL of each primer (Bax, Bcl2, P53, CDK4) with 10 pmol/µL (Qiagen, CA, Germany), 2.5 µL of cDNA, and […] of RNAse free water. The thermal cycle of PCR started with an initial denaturation at 95 °C for 10 min, followed by 45 cycles at 94 °C for15 s, 65 °C for 30 s, and 56 °C for 30 s. The relative gene expression was determined using the method of 2^−ΔΔCtafter normalization to the expression of β-actin (Qiagen, CA, Germany) (10 pmol/µL). […]

BAX = assay: Real-time PCR of BAX expression in A549 cells; format: cell-based, human; settings: IC50 conc., 48 h, qPCR, untreated control = 1
Description: as §1

P53 = assay: Real-time PCR of P53 expression in A549 cells; format: cell-based, human; settings: IC50 conc., 48 h, qPCR, untreated control = 1
Description: as §1

A549 cells [1] = assay: Flow-cytometric analysis of cell cycle (PI); format: cell-based, human; settings: IC50 conc., 48 h
Description: (§2) 10^6 of A549 cells were cultured in 60-mm Petri dishes for 24 h and then treated with compound 7batIC50concentrationfor 48 h. The untreated A549 cells were used as a negative control. After 48 h of incubation, A549 cells were centrifuged at1000 rpm for 5 min at 4 °C. The cells pellet were washed in phosphate-buffered saline (PBS) and then centrifuged at 1000 rpm for another 5 min. After discarding the supeRNAtant, the cells were collected in a single cell suspension and fixed in 70% ethanol on ice overnight. After the fixation step, cells were washed with 1 ml 1 × PBS. Finally, the cells pellet was incubated with a 200 µl 1 × propidium iodide (PI) mixture at room temperature in the dark for 30 min. Then, cells were subjected to an Epics XL-MCL flow cytometer (Beckman Coulter, Miami, FL) for DNA content analysis. Cells distribution at different phases was analysed by Multicycle software (Phoenix Flow Systems, San Diego, CA). Annexin V-FITC kit catalogue number (#K101-25) was used to detect the percentage of the apoptotic cells. About 10^6 of A549 cells were collected by centrifugation. Then, cells were washed in 500 µl of 1 × PBS. The cells were collected by centrifugation and then resuspended in the annexin V incubation reagent. The annexin V incubation reagent comprising of 10 μL binding buffer (10X) + 10 μL propidium iodide + 1 μL annexin V-FITC + 79 μL deionized water. The cells in 100 μL annexin V incubation reagent was incubated in dark at room temperature for 15 min (Ali et al. [2017]). Finally, the percentage of apoptotic cells was analyzed by flow cytometry using FITC signal detector (usually FL-1) and PI staining by the phycoerythrin emission signal detector (usually FL-2).

human caspase-8 = assay: ELISA of caspase-8 in A549 cell lysates; format: cell-based; settings: A549 cells, IC50 conc., 48 h, untreated control 0.375
Description: (§3) Elisa assay was performed to detect the concentration of human caspase-3, caspase-8, and caspase-9 in A549 cell culture lysates. The instructions were followed up according to the manuscript instructions described in the following kits: DRG® human Caspase-8 ELISA Kit, Catalogue # (EIA-4863), DRG® human Caspase-9 ELISA Kit, Catalogue # (EIA-4860), and Invitrogen human Caspase-3 Elisa Kit, Catalogue # KHO1091, respectively. All reagents, samples, and standards were prepared as described in the above ELISA kits. Briefly, the procedure was described as followed; the microwell strips were washed twice with wash buffer. A total of 100 μl of standard or samples were added to each well and incubated for 2 h at room temperature (18 to 25 °C). The microwell strips were emptied and washed three times with wash buffer. A total of 100 μl of prepared antibodyanti-rabbit-IgG-HRP) were added to each well for 1 h at room temperature. The step of washing was repeated three times and then, 100 μl of prepared TMB (tetramethyl-benzidine) substrate solution was pipetted to all wells and incubated for 10 min at room temperature. […] The absorbance of each microwell was read immediately on a spectrophotometer at a wavelength of 450 nm. The concentrations of the unknown samples and controls were determined from the standard curve which was plotted using curve fitting software.

[2] = tested on: normal lung (Wi38) cell line; assay: MTT assay against normal lung (Wi38) cell line; format: cell-based; settings: Homo sapiens, WI-38, 48 h
Text: [Worded in the source for another cell line; this cell line is reported under the same test.] (§4) In vitro inhibition activity of the newly synthesized series was investigated on cell viability according to the literature review described by Mohamed et al. (Mohamed et al. [2021b]). In a brief explanation of MTT assay employed herein. In vitro, toxicological MTT Kit has been used to perform an (3-[4,5-dimethylthiazole-2-yl]-2,5-diphenyltetrazolium bromide) to measure the cytotoxicity effect of a novel (3-(Furan-2-yl)pyrazol-4-yl) chalcones against A549 cell line. Lung carcinoma cell line A549 was seeded in microplate where the prepared chalcones solution were added to triplicates well. Incubation of plates was done at 37 °C for 48 h. The fresh […]. Lung cells treated with different range concentration of our series [[…]] were incubated, also untreated cells were used as a reference negative control. One percent antibiotic mixture was used, and after incubation. The positive control utilized here was 5-FU ([…]).

[3] = tested on: lung carcinoma (A549) cell line; assay: MTT assay against lung carcinoma (A549) cell line; format: cell-based, human; settings: for IC50 values, Lung carcinoma (A549): 48 h; for IC50: Homo sapiens, A549, 48 h
Text: as §4

Bcl2 = assay: Real-time PCR of Bcl2 expression in A549 cells; format: cell-based, human; settings: IC50 conc., 48 h, qPCR, untreated control = 1
Description: as §1

human caspase-3 = assay: ELISA of caspase-3 in A549 cell lysates; format: cell-based; settings: A549 cells, IC50 conc., 48 h, untreated control 53.69
Description: as §3

A549 cells [4] = assay: Flow-cytometric analysis of apoptosis (Annexin V-FITC/PI); format: cell-based, human; settings: IC50 conc., 48 h
Description: as §2

human caspase-9 = assay: ELISA of caspase-9 in A549 cell lysates; format: cell-based; settings: A549 cells, IC50 conc., 48 h, untreated control 1.49
Description: as §3

IC50 values, Lung carcinoma (A549) [3] [µg/mL] | IC50 [3] [µg/mL] | melting point [°C] | Structure (SMILES) | IC50 [2] [µg/mL] | other results
 | 238 (≈ 416 µM) | 232 to 234 | COc1ccc(-c2cn(-c3ccccc3)nc2/C=C/C(=O)c2c(-c3ccco3)nn(-c3ccc([N+](=O)[O-])cc3)c2C)cc1 [7f, (E)-1-(3-(Furan-2-yl)-5-methyl-1-(4-nitrophenyl)-1H-pyrazol-4-yl)-3-(4-(4-methoxyphenyl)-1-phenyl-1H-pyrazol-3-yl)prop-2-en-1-one] | 296 (≈ 518 µM) | 
 | 217 (≈ 391 µM) | 248 to 250 | Cc1ccc(-c2cn(-c3ccccc3)nc2/C=C/C(=O)c2c(-c3ccco3)nn(-c3ccc([N+](=O)[O-])cc3)c2C)cc1 [7e, (E)-1-(3-(Furan-2-yl)-5-methyl-1-(4-nitrophenyl)-1H-pyrazol-4-yl)-3-(1-phenyl-4-(p-tolyl)-1H-pyrazol-3-yl)prop-2-en-1-one] | 296 (≈ 532 µM) | 
76.52 (≈ 141 µM) | 76.5 (≈ 141 µM) | 168 to 170 | Cc1c(C(=O)/C=C/c2nn(-c3ccccc3)cc2-c2ccccc2)c(-c2ccco2)nn1-c1ccc([N+](=O)[O-])cc1 [7d, (E)-3-(1,4-Diphenyl-1H-pyrazol-3-yl)-1-(3-(furan-2-yl)-5-methyl-1-(4-nitrophenyl)-1H-pyrazol-4-yl)prop-2-en-1-one] | 261 (≈ 483 µM) | 
 | 251 (≈ 437 µM) | 242 to 244 | Cc1c(C(=O)/C=C/c2nn(-c3ccccc3)cc2-c2ccc(Cl)cc2)c(-c2ccco2)nn1-c1ccc([N+](=O)[O-])cc1 [7g, (E)-3-(4-(4-Chlorophenyl)-1-phenyl-1H-pyrazol-3-yl)-1-(3-(furan-2-yl)-5-methyl-1-(4-nitrophenyl)-1H-pyrazol-4-yl)prop-2-en-1-one] | 379 (≈ 658 µM) | 

The next lines start with the compound.

Structure (SMILES) | IC50 values, Lung carcinoma (A549) [3] [µg/mL] | IC50 [3] [µg/mL] | melting point [°C] | IC50 [2] [µg/mL] | other results
Cc1c(C(=O)/C=C/c2cccs2)c(-c2ccco2)nn1-c1ccc([N+](=O)[O-])cc1 [7b, (E)-1-(3-(Furan-2-yl)-5-methyl-1-(4-nitrophenyl)-1H-pyrazol-4-yl)-3-(thiophen-2-yl)prop-2-en-1-one] | 20.05 (≈ 49.5 µM) | 20 (≈ 49.3 µM) | 142 to 144 | 108 (≈ 267 µM) | Gene expression (fold change/ β-actin), CDK4 (CDK4): 0.39 fold change; Gene expression (fold change/ β-actin), BAX (BAX): 7.93 fold change; Gene expression (fold change/ β-actin), P53 (P53): 4.69 fold change; Cell cycle arrest (phase) (A549 cells [1]): cell cycle arrest at G0/G1 and S phases; G2/M % (DNA content) (A549 cells [1]; untreated control 15.63): 4.21%; S % (DNA content) (A549 cells [1]; untreated control 37.15): 43.42%; G0/G1% (DNA content) (A549 cells [1]; untreated control 47.22): 52.37%; Enzyme activity ± SD, Caspase 8 (human caspase-8): 1.575 ± 0.05 pg/mL; Gene expression (fold change/ β-actin), Bcl2 (Bcl2): 0.44 fold change; Enzyme activity ± SD, Caspase 3 (human caspase-3): 495.4 pg/mL and 495.4 ± 6.52 pg/mL; Apoptosis % % Late (A549 cells [4]; untreated control 0.11): 21.24%; Apoptosis % % Early (A549 cells [4]; untreated control 0.34): 3.69%; Necrosis% (A549 cells [4]; untreated control 1.26): 17.23%; Apoptosis % %Total (A549 cells [4]; untreated control 1.71): 42.16%; Enzyme activity ± SD, Caspase 9 (human caspase-9): 15.76 ± 0.06 pg/mL
Cc1c(C(=O)/C=C/c2ccncc2)c(-c2ccco2)nn1-c1ccc([N+](=O)[O-])cc1 [7c, (E)-1-(3-(Furan-2-yl)-5-methyl-1-(4-nitrophenyl)-1H-pyrazol-4-yl)-3-(pyridin-4-yl)prop-2-en-1-one] |  | 13.9 (≈ 34.6 µM) | 198 to 200 | 18.2 (≈ 45.5 µM) | Gene expression (fold change/ β-actin), CDK4 (CDK4): 0.54 fold change; Gene expression (fold change/ β-actin), BAX (BAX): 4.78 fold change; Gene expression (fold change/ β-actin), P53 (P53): 2.32 fold change; Enzyme activity ± SD, Caspase 8 (human caspase-8): 1.042 pg/mL and 1.042 ± 0.02 pg/mL; Gene expression (fold change/ β-actin), Bcl2 (Bcl2): 0.61 fold change; Enzyme activity ± SD, Caspase 3 (human caspase-3): 377.2 pg/mL and 377.2 ± 6.04 pg/mL; Enzyme activity ± SD, Caspase 9 (human caspase-9): 11.2 pg/mL and 11.2 ± 0.52 pg/mL
Cc1c(C(=O)/C=C/c2nn(-c3ccccc3)cc2-c2ccc([N+](=O)[O-])cc2)c(-c2ccco2)nn1-c1ccc([N+](=O)[O-])cc1 [7h, (E)-1-(3-(Furan-2-yl)-5-methyl-1-(4-nitrophenyl)-1H-pyrazol-4-yl)-3-(4-(4-nitrophenyl)-1-phenyl-1H-pyrazol-3-yl)prop-2-en-1-one] |  | 211 (≈ 360 µM) | 242 | 224 (≈ 382 µM) | 
O=c1[nH]cc(F)c(=O)[nH]1 [5-FU, reference compound] | 147.29 (≈ 1130 µM) |  |  |  | 
Cc1c(C(=O)/C=C/c2ccco2)c(-c2ccco2)nn1-c1ccc([N+](=O)[O-])cc1 [7a, (E)-3-(Furan-2-yl)-1-(3-(furan-2-yl)-5-methyl-1-(4-nitrophenyl)-1H-pyrazol-4-yl)prop-2-en-1-one] |  | 42.7 (≈ 110 µM) | 138 to 140 | 68 (≈ 175 µM) | 
